Reference: EP1632557B1, “Novel alkaline cellulases” (Novozymes A/S, priority 1994, dated 1995)

T1: EG I' from Fusarium oxysporum (Figure 4) (Fusarium oxysporum, UniProt P46237)
T1 sequence (P46237 19-429): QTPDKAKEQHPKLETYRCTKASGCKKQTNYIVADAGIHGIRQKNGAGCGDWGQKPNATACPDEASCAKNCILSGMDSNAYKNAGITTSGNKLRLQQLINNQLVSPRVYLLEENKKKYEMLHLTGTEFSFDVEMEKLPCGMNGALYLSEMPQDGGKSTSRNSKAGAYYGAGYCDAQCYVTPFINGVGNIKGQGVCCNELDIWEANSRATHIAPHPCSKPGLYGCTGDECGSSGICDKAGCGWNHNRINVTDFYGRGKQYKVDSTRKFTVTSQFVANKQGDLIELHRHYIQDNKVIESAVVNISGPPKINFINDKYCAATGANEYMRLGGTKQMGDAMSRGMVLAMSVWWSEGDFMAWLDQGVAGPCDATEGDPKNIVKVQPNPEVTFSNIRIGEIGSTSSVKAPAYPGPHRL

B1: EG I' from Fusarium oxysporum (Figure 4) (Fusarium oxysporum) (protein)
chain: T1 sequence (P46237 19-429)

Legend:
[1] = biological target: T1, EG I' from Fusarium oxysporum (Figure 4); assay: Cellulase activity on cellotriose (coupled glucose oxidase/peroxidase/ABTS assay); details: pH 8,5 and 40°C; calculated from a Lineweaver-Burk plot
Method: (§1) The cellulase activity on cellotriose, in terms of kcat·s^-1, was determined by a coupled assay: Cellotriose → Glucose + Cellobiose (cat.: cellulase) Glucose + O2 + H2O → Gluconate + H2O2 (cat.: Glucoseoxidase) H2O2 + ABTS^R → ABTS^Ox (cat.: Peroxidase) which is followed spectrophotometrically at 418 nm (maximum absorbance of ABTS^Ox at 418 nm).
(§2) The GOD-Perid Test Kit (available from Boehringer Mannheim, art. 124 036) was used. The buffer-enzyme solution in the test kit was dissolved in 500 ml milli Q water. pH of the solution was adjusted to 8.5 (NaOH).
(§3) 80 mg of ABTS^R (available from Boehringer Mannheim, art. 756 407) was dissolved in 10 ml GOD-Perid corresponding to a total concentration of ABTS^R of 10 mg/ml.
(§4) A substrate stock solution of 5 mmole (2.52 mg/ml) of cellotriose (available from Merck art. 24741) in water was prepared. Diluted solutions in water corresponding to 1000 µmole, 500 µmole, 376 µmole, 250 µmole, 100 µmole and 60 µmole were prepared.
(§5) The reaction mixture was prepared by mixing 1 part of substrate solution with 1 part of GOD-Perid.
(§6) A solution of the cellulase enzyme to be determined in a concentration of 1.0 - 3.0 µmole was prepared. […]
(§7) The cellulase activity on cellotriose, in terms of kcat·s^-1, was calculated from a Lineweaver-Burk plot (a plot of 1/V versus 1/[S]): the slope and the intersection were determined by linear regression analysis. […]

[2] = substrate: OC[C@H]1O[C@@H](O[C@H]2[C@H](O)[C@@H](O)[C@H](O[C@H]3[C@H](O)[C@@H](O)C(O)O[C@@H]3CO)O[C@@H]2CO)[C@H](O)[C@@H](O)[C@@H]1O; assay: purified protein, by the assay type; details: other: substrate cellotriose, pH 8,5 and 40°C, calculated from a Lineweaver-Burk plot, pH 8.5
Method: as §1, §2, §3, §4, §5, §6, §7

Molecule | catalytic activity on cellotriose (Kcat) [1] | Km [2] [µM]
OC[C@H]1O[C@@H](O[C@H]2[C@H](O)[C@@H](O)[C@H](O[C@H]3[C@H](O)[C@@H](O)C(O)O[C@@H]3CO)O[C@@H]2CO)[C@H](O)[C@@H](O)[C@@H]1O (some centres unmarked) [cellotriose] | 5,5 pr. sec | 
B1 |  | 500
